Measurements from patent publication US8729131B2, “Agomelatine hydrochloride hydrate and preparation thereof” (Les Laboratoires Servier, priority 2010, dated 2014).
Counter-ions that a name gives are not always drawn.

Experiments:
Assay type in all cases: physicochemical
[1] = Water solubility, HPLC external standard method
Description: Using external standard method, the product of Example 1 was tested with HPLC, compared with agomelatine crystalline form II.

[2] = Stability test (Chinese Pharmacopoeia): long-term test, closed container for 9 months
Description: (§1) The method for stability test as described in Chinese Pharmacopoeia was used in this test. • 1) Affecting factors test (in open container for 10 days): high temperature (60° C.), photostability under strong light (45001×), high humidity (92.5% RH at 25° C.) • 2) Accelerated test (in closed container for 6 months): at 40° C., humidity: 75% RH • 3) Long-term test (in closed container for 9 months): at 25° C., humidity: 60% RH

[3] = Stability test (Chinese Pharmacopoeia): affecting factors test, open container for 10 days; settings: open container 10 days; for Water: initial 6.10%; for C1: initial 11.86%; for purity: initial purity 99.72%
Description: as §1

[4] = Stability test: product placed in an incubator at 40° C. for 30 days, determined with HPLC; settings: 40° C. incubator
Description: Chromatographic conditions: C18 column; mobile phase: 10 mmol/L phosphate buffer (adjusted to pH 7.0 with NaOH): acetonitrile=2:7 (v/v); column temperature: 40° C.; detection wavelength: 220 nm; internal standard method was used on the products of Examples 1 and 2.
Solutions of the products at 1 mg/mL were prepared with the mobile phase. 10 μL of each solution was injected into the liquid chromatograph system and chromatograms were recorded. The results of the purity are shown in Examples 1 and 2.
Some of the product of Example 1 was placed in an incubator at 40° C. for 30 days to determine its stability with HPLC.

[5] = Stability test (Chinese Pharmacopoeia): accelerated test, closed container for 6 months
Description: as §1

[6] = High humidity (92.5% RH at 25° C.)

For `COc1ccc2cccc(CCNC(C)=O)c2c1` [AG crystalline form II, N-[2-(7-methoxy-1-naphthyl)pethyl]-acetamide, reference compound], which Agomelatine content ([1]; In 0.1 N HCl) is on record?
Its Agomelatine content is 0.30 mg/mL.

What about the Agomelatine content ([1]; In pH 7.0 buffer) of the same compound?
The Agomelatine content was 0.25 mg/mL.

And the Agomelatine content ([1]; In water)?
Its Agomelatine content is 0.26 mg/mL.

For `COc1ccc2cccc(CCNC(C)=O)c2c1` [AG · HCl · H2O, agomelatine hydrochloride hydrate], which Agomelatine content ([1]; In 0.1 N HCl, hydrochloride hydrate) is on record?
The Agomelatine content was 0.40 mg/mL.

And the Agomelatine content ([1]; In pH 7.0 buffer, hydrochloride hydrate)?
Its Agomelatine content is 0.30 mg/mL.

What about the Agomelatine content ([1]; In water, hydrochloride hydrate) of the same compound?
The Agomelatine content was 0.30 mg/mL.

What about the “solubility compared with agomelatine per se (in words)” value ([1]; in water, in 0.1N HCl, or in pH 7.0 buffer) of the same compound?
The value was “better solubility”.

And the Water ([2]; 25° C., 60% RH, closed container 9 months, initial 6.10%)?
Its Water is 6.00%.

And the C1 ([2]; 25° C., 60% RH, closed container 9 months, initial 11.86%)?
The C1 was 11.53%.

What about the purity ([2]; 25° C., 60% RH, closed container 9 months, initial purity 99.72%) of the same compound?
Its purity is 99.74%.

And the “stability (in words)” value ([2]; long-term test)?
Its value is “stable”.

And the Water [3, 6]?
Its Water is 6.03%.

And the C1 [3, 6]?
Its C1 is 11.63%.

What about the purity [3, 6] of the same compound?
The purity was 99.73%.

And the Water ([3]; High temperature (60° C.))?
The Water was 1.00%.

And the C1 ([3]; High temperature (60° C.))?
The C1 was 1.75%.

And the purity ([3]; High temperature (60° C.))?
The purity was 99.51%.

What about the Water ([3]; Strong light (45001×)) of the same compound?
The Water was 5.95%.

And the C1 ([3]; Strong light (45001×))?
The C1 was 11.48%.

And the purity ([3]; Strong light (45001×))?
The purity was 99.67%.

And the “stability with HPLC” value ([4]; Day 0)?
The value was 99.6%.

And the “stability with HPLC” value ([4]; Day 5)?
The value was 99.5%.

And the “stability with HPLC” value ([4]; Day 10)?
Its value is 99.5%.

What about the “stability with HPLC” value ([4]; Day 30) of the same compound?
Its value is 99.5%.

And the Water ([5]; 40° C., 75% RH, closed container 6 months, initial 6.10%)?
Its Water is 6.02%.

And the C1 ([5]; 40° C., 75% RH, closed container 6 months, initial 11.86%)?
Its C1 is 11.65%.

And the purity ([5]; 40° C., 75% RH, closed container 6 months, initial purity 99.72%)?
Its purity is 99.64%.

And the “stability (in words)” value ([5]; accelerated test)?
The value was “stable”.
